Laboratory results taken from PMC4076210, “Discovery of Novel AKT Inhibitors with Enhanced Anti-Tumor Effects in Combination with the MEK Inhibitor” (PLoS ONE, 2014).

What was measured:
GCK(h) = biological target: T1, GCK(h) (Homo sapiens, UniProt Q12851); experiment: Kinase panel; assay type: biochemical; conditions: read-out: % Inhibition
T1 construct: purchased Millipore KinaseProfiler
T1 sequence (Q12851 1-820): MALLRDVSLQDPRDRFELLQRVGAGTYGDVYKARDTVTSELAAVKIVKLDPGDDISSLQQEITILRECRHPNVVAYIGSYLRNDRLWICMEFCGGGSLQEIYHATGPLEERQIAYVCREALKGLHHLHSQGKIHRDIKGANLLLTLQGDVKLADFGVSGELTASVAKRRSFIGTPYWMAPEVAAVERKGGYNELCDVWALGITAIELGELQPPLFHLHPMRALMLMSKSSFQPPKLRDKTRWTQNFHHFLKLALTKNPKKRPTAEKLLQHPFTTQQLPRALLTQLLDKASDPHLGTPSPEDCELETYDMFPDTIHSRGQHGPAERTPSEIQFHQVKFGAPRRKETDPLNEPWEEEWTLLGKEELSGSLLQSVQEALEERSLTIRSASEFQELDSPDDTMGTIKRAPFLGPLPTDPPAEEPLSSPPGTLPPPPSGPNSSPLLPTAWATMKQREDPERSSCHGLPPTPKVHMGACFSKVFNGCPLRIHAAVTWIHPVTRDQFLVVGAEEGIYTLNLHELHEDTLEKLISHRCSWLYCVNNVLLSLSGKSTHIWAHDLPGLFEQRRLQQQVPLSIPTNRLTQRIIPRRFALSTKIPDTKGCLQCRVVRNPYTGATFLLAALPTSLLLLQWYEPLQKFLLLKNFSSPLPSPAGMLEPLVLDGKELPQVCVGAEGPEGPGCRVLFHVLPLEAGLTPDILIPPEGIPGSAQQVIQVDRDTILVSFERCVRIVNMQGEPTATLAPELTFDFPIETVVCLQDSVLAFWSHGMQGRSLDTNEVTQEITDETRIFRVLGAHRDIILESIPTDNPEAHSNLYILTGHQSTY

[1] = test system: hematological tumor cell lines; experiment: 3-day proliferation assay (CellTiter-Glo); assay type: cell-based, human; conditions: for IC50: Homo sapiens
Description: Various tumor cell lines were obtained from different sources including; the American Type Cell Culture Collection, the Developmental Therapeutics Program, the National Cancer Institute, the German Resource Center for Biological Material and the European Collection of Animal Cell Cultures. Cell lines were typically grown in […] containing 10% FBS. Some cell lines were grown in media specified by the vendor. A 3-day proliferation assay using CellTiter-Glo (CTG, Promega) was performed to measure the growth inhibition by the compounds at 0–30 µM. Cell growth was determined relative to untreated (DMSO) controls. EC50's were calculated from inhibition curves using a 4- or 6-parameter fitting algorithm in the Assay Client application.

Cn1ncc(Cl)c1-c1cc(C(=O)N[C@H](CN)Cc2ccc(F)c(F)c2)oc1Cl [GSK2141795]
inhibition at 0.5 µM (GCK(h); 0.5 µM): -13% | inhibition at 10 µM (GCK(h); 10 µM): 7% | hematological cell lines sensitive (EC50<1 µM) ([1]; 112 cell lines, 3 days, CTG): 81% | IC50 ([1]; 1A2, 1A2 cell line, Burkitt's Lymphoma, B Cell): 93 nM | IC50 ([1]; 697 cell line, ALL, pre-B Cell): 300 nM | IC50 ([1]; ARH-77, ARH77 cell line, Multiple Myeloma, B Cell): 155 nM | IC50 ([1]; B-cell, BDCM cell line, AML, B Cell): 14 nM | IC50 ([1]; B-cell, CESS cell line, AML, B Cell): 9 nM | IC50 ([1]; B-cell, CRO-AP3 cell line, Primary Effusion Lymphoma (PEL), B Cell): 113 nM | IC50 ([1]; B-cell, EHEB cell line, CLL, B Cell): 51 nM | IC50 ([1]; B-cell, HKB-11 cell line, Burkitt's Lymphoma, B Cell): 52 nM | IC50 ([1]; B-cell, HS-Sultan cell line, Burkitt's Lymphoma, B Cell): 226 nM | IC50 ([1]; B-cell, KARPAS-231 cell line, ALL, B Cell): 36 nM | IC50 ([1]; B-cell, MC/CAR cell line, Multiple Myeloma, B Cell): 40 nM | IC50 ([1]; B-cell, MN60 cell line, ALL, B Cell): 653 nM | IC50 ([1]; B-cell, Namalwa cell line, Burkitt's Lymphoma, B Cell): 300 nM | IC50 ([1]; B-cell, SD-1 cell line, ALL, B Cell): 15 nM | IC50 ([1]; B-cell, Tanoue cell line, ALL, B Cell): 1460 nM | IC50 ([1]; BC1, BC1 cell line, Burkitt's Lymphoma, B Cell): 465 nM | IC50 ([1]; BC-3, BC3 cell line, Burkitt's Lymphoma, B Cell): 3130 nM | IC50 ([1]; BV-173, BV173 cell line, CML, pre-B Cell): 860 nM | IC50 ([1]; CA46, CA46 cell line, Burkitt's Lymphoma, B Cell): 948 nM | IC50 ([1]; CCRF-CEM, CCRFCEM cell line, ALL, T Cell): 146 nM | IC50 ([1]; CCRF-SB, CCRFSB cell line, ALL, B Cell): 20 nM | IC50 ([1]; CEM/C1, CEM/C1 cell line, ALL, T Cell): 30 nM | IC50 ([1]; CEM/C2, CEM/C2 cell line, ALL, T Cell): 22 nM | IC50 ([1]; CML-T1, CML-T1 cell line, CML, T Cell): 5230 nM | IC50 ([1]; CRO-AP5, CRO-AP5 cell line, Primary Effusion Lymphoma (PEL), B Cell): 34 nM | IC50 ([1]; DB, DB cell line, Non-Hodgkin's Lymphoma, B Cell): 5220 nM | IC50 ([1]; DG-75, DG75 cell line, Burkitt's Lymphoma, B Cell): 14800 nM | IC50 ([1]; DOHH-2, DOHH-2 cell line, Non-Hodgkin's Lymphoma, B Cell): 10.5 nM | IC50 ([1]; Daudi, DAUDI cell line, Burkitt's Lymphoma, B Cell): 269 nM | IC50 ([1]; EB1, EB1 cell line, Burkitt's Lymphoma, B Cell): 49 nM | IC50 ([1]; EB2, EB2 cell line, Burkitt's Lymphoma, B Cell): 256 nM | IC50 ([1]; EB-3, EB3 cell line, Burkitt's Lymphoma, B Cell): 1760 nM | IC50 ([1]; EM-2, EM2 cell line, CML, Unspecified): 1650 nM | IC50 ([1]; Farage cell line, Non-Hodgkin's Lymphoma, B Cell): 103 nM | IC50 ([1]; GA-10, GA-10 cell line, Burkitt's Lymphoma, B Cell): 17 nM | IC50 ([1]; GDM-1, GDM-1 cell line, AML, Monoblast): 3070 nM | IC50 ([1]; HD-MY-Z cell line, Hodgkin's Lymphoma, Unspecified): 8290 nM | IC50 ([1]; HEL 92.1.7, HEL92.1.7 cell line, AML, Erythroleukemia): 7760 nM | IC50 ([1]; HH, HH cell line, Non-Hodgkin's Lymphoma (CTCL), T Cell): 85 nM | IC50 ([1]; HL-60, HL-60 cell line, AML, Myeloblast): 3720 nM | IC50 ([1]; HSB2, HSB2 cell line, ALL, T Cell): 576 nM | IC50 ([1]; HT, HT cell line, Burkitt's Lymphoma, B Cell): 93 nM | IC50 ([1]; HuT78, HuT78 cell line, Non-Hodgkin's Lymphoma (CTCL), T Cell): 147 nM | IC50 ([1]; J.gamma1, J.Gamma-1 cell line, ALL, T Cell): 21 nM | IC50 ([1]; JIYOYE, JIYOYE cell line, Burkitt's Lymphoma, B Cell): 536 nM | IC50 ([1]; JM1, JM1 cell line, Burkitt's Lymphoma, pre-B Cell): 212 nM | IC50 ([1]; JVM13, JVM13 cell line, CLL, B Cell): 84 nM | IC50 ([1]; JVM-2, JVM2 cell line, CLL, B Cell): 13 nM | IC50 ([1]; JVM-3, JVM-3 cell line, CLL, B Cell): 8480 nM | IC50 ([1]; Jurkat, Jurkat cell line, ALL, T Cell): 17 nM | IC50 ([1]; K562, K562 cell line, CML, Lymphoblast): 9780 nM | IC50 ([1]; KG-1, KG-1 cell line, AML, B Cell): 281 nM | IC50 ([1]; KU812, Ku812 cell line, CML, Basophilic Leukocyte): 72 nM | IC50 ([1]; Kasumi 1, Kasumi-1 cell line, AML, Myeloblast): 22.3 nM | IC50 ([1]; Kasumi-2 cell line, AML, Myeloblast): 457 nM | IC50 ([1]; L-428, L428 cell line, Hodgkin's Lymphoma, Unspecified): 1.2 nM | IC50 ([1]; MC116, MC116 cell line, Burkitt's Lymphoma, B Cell): 320 nM | IC50 ([1]; MEC1, MEC1 cell line, CLL, B Cell): 168 nM | IC50 ([1]; MEC2, MEC-2 cell line, CLL, B Cell): 112 nM | IC50 ([1]; MEG-01, MEG01 cell line, CML, Megakaryoblastic): 285 nM | IC50 ([1]; MHH-CALL-3 cell line, ALL, pre-B Cell): 26 nM | IC50 ([1]; MHH-PREB-1, MHH-PREB-1 cell line, Non-Hodgkin's Lymphoma, B Cell): 932 nM | IC50 ([1]; ML-2, ML-2 cell line, AML, Myelomonocytic): 399 nM | IC50 ([1]; MOLT-3, MOLT3 cell line, ALL, T Cell): 19 nM | IC50 ([1]; MOLT-4, Molt-4 cell line, ALL, T Cell): 10 nM | IC50 ([1]; MOLT-16, MOLT16 cell line, ALL, T Cell): 15 nM | IC50 ([1]; MV4-11, MV-4-11 cell line, AML, Myelomonocytic): 875 nM | IC50 ([1]; NALM-6, Nalm-6 cell line, ALL, pre-B Cell): 74 nM | IC50 ([1]; NC-37, NC-37 cell line, Burkitt's Lymphoma, B Cell): 752 nM | IC50 ([1]; NOMO-1, Nomo-1 cell line, AML, B Cell): 48 nM | IC50 ([1]; NU-DHL-1, NU-DHL-1 cell line, Burkitt's Lymphoma, B Cell): 16 nM | IC50 ([1]; OCI-AML2, OCI-AML-2 cell line, AML, B Cell): 18100 nM | IC50 ([1]; OCI-AML-3, OCI-AML-3 cell line, AML, B Cell): 28 nM | IC50 ([1]; OCI-M1, OCI-M1 cell line, AML, B Cell): 644 nM | IC50 ([1]; P3HR-1, P3HR-1 cell line, Burkitt's Lymphoma, B Cell): 17 nM | IC50 ([1]; PLB-985, PLB985 cell line, AML, B Cell): 1140 nM | IC50 ([1]; Pfeiffer, Pfeiffer cell line, Non-Hodgkin's Lymphoma, B Cell): 10 nM | IC50 ([1]; RCH-ACV cell line, ALL, pre-B Cell): 157 nM | IC50 ([1]; RCK8, RC-K8 cell line, Non-Hodgkin's Lymphoma (Histiocytic), B Cell): 1750 nM | IC50 ([1]; REH, Reh cell line, ALL, pre-B Cell): 92 nM | IC50 ([1]; RL, RL cell line, Non-Hodgkin's Lymphoma, B Cell): 72 nM | IC50 ([1]; RPMI-6666, RPMI 6666 cell line, Hodgkin's Lymphoma, Lymphoblast): 121 nM | IC50 ([1]; RS4-11, RS4;11 cell line, ALL, B Cell): 177 nM | IC50 ([1]; Raji, Raji cell line, Burkitt's Lymphoma, B Cell): 6370 nM | IC50 ([1]; Rec1, REC-1 cell line, Non-Hodgkin's Lymphoma, B Cell): 721 nM | IC50 ([1]; SC-1, SC1 cell line, Burkitt's Lymphoma, B Cell): 965 nM | IC50 ([1]; SEM cell line, ALL, pre-B Cell): 210 nM | IC50 ([1]; SKO-007, SKO-007 cell line, Multiple Myeloma, B Cell): 4890 nM | IC50 ([1]; SKW3, SKW-3 cell line, CLL, B Cell): 26 nM | IC50 ([1]; SR, SR cell line, Non-Hodgkin's Lymphoma, Lymphoblast): 1960 nM | IC50 ([1]; ST486, ST486 cell line, Burkitt's Lymphoma, B Cell): 745 nM | IC50 ([1]; SU-DHL10, SU-DHL-10 cell line, Non-Hodgkin's Lymphoma, B Cell): 73 nM | IC50 ([1]; SU-DHL-4, SU-DHL-4 cell line, Non-Hodgkin's Lymphoma, B Cell): 53 nM | IC50 ([1]; SU-DHL-5, SU-DHL-5 cell line, Non-Hodgkin's Lymphoma, B Cell): 31 nM | IC50 ([1]; SU-DHL-6, SU-DHL-6 cell line, Non-Hodgkin's Lymphoma, B Cell): 35 nM | IC50 ([1]; SU-DHL-16, SU-DHL-16 cell line, Non-Hodgkin's Lymphoma, B Cell): 23 nM | IC50 ([1]; SUP-B15, SUP B15 cell line, ALL, B Cell): 824 nM | IC50 ([1]; T-cell, 8E5 cell line, ALL, T Cell): 31 nM | IC50 ([1]; T-cell, A3 cell line, ALL, T Cell): 38 nM | IC50 ([1]; T-cell, CEM/C3 cell line, ALL, T Cell): 18 nM | IC50 ([1]; T-cell, I2.1 cell line, ALL, T Cell): 26 nM | IC50 ([1]; T-cell, I9.2 cell line, ALL, T Cell): 43 nM | IC50 ([1]; T-cell, J.Cam.1.6 cell line, ALL, T Cell): 41 nM | IC50 ([1]; T-cell, J.RT-T3.5 cell line, ALL, T Cell): 30 nM | IC50 ([1]; T-cell, JR45.01 cell line, ALL, T Cell): 16 nM | IC50 ([1]; T-cell, LOUCY cell line, ALL, T Cell): 13 nM | IC50 ([1]; T-cell, MJ cell line, Non-Hodgkin's Lymphoma (CTCL), T Cell): 2880 nM | IC50 ([1]; T-cell, P116 cell line, ALL, T Cell): 18 nM | IC50 ([1]; T-cell, SUPTI(VB) cell line, ALL, T Cell): 115 nM | IC50 ([1]; TO 175.T, TO 175.T cell line, Hodgkin's Lymphoma, Unspecified): 5250 nM | IC50 ([1]; Toledo, Toledo cell line, Non-Hodgkin's Lymphoma, B Cell): 99 nM | IC50 ([1]; U-937, U937 cell line, Non-Hodgkin's Lymphoma (Histiocytic), Monocyte): 22 nM
